Results from PMC12112332, “Characterization of Novel and Known Activators of Cannabinoid Receptor Subtype 2 Reveals Mixed Pharmacology That Differentiates Mycophenolate Mofetil and GW-842,166X from MDA7” (International Journal of Molecular Sciences, 2025).
pEC50: −log10 of the molar value. Where two headings read alike, the source gives them in different places.

Biological target: T1, rCB1 (Rattus norvegicus, UniProt P20272)
T1 construct: expressed in transfected cells; host or cells: HEK293 cells stably co-expressing GIRK channels
T1 sequence (P20272 whole entry): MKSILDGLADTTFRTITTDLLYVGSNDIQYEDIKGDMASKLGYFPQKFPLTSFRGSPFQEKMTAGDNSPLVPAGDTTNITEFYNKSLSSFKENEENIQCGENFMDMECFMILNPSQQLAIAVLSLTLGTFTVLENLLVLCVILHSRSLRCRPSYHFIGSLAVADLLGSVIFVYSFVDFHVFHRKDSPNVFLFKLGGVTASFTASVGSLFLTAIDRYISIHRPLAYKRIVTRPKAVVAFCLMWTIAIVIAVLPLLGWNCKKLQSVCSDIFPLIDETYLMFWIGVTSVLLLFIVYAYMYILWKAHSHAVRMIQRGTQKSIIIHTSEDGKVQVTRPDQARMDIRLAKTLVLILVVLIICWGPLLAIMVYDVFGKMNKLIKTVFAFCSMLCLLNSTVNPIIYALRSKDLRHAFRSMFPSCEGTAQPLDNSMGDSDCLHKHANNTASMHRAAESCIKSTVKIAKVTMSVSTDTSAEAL
Test: Thallium flux assay in HEK/GIRK cells expressing rCB1
Assay type: cell-based
Settings: for rCB1 GIRK (−) 2-AG % Max ± SEM / rCB1 GIRK (+) 2-AG % Max ± SEM: % of maximal 2-AG response
Description: The cell lines used in this manuscript were generated in-house. Their preparation is described in detail in Qi et al.. Cells were used for 10 passages for experiments and day-to-day signals in both the CB2 and CB1 lines were stable across this passage number. Human Embryonic Kidney (HEK) 293 cells stably expressing rCB2 and the G protein Gqi9 were maintained in Dulbecco’s modified Eagle media (DMEM) containing 10% FBS, 1× antibiotic/antimycotic, 20 mM HEPES, 1 mM sodium pyruvate, 2 mM L-glutamine, 1× non-essential amino acids, 700 µg/mL G418 sulfate, and 0.6 µg/mL puromycin. HEK cells stably expressing rCB2 or rCB1 and the G protein inwardly rectifying potassium channel (GIRK) were maintained in DMEM/F12 containing 10% FBS, 1× antibiotic/antimycotic, 20 mM HEPES, 1 mM sodium pyruvate, 2 mM L-glutamine, 1× non-essential amino acids, 700 µg/mL G418 sulfate, and 0.6 µg/mL puromycin. Cells were monitored by periodic PCR detection using the LookOut Mycoplasma PCR Detection Kit (Sigma-Aldrich, St Louis, MO, USA) to eliminate potential mycoplasma infection. Reagents were obtained from Invitrogen (Waltham, MA, USA) unless otherwise noted.
Thallium flux assays were performed as previously described in Niswender et al., 2008 [31]. HEK/GIRK cells stably expressing rCB1 or rCB2 (15,000 cells/20 µL/well) were seeded in 384-well, poly-D-lysine coated assay plates (Corning BioCoat®) (Corning Inc., Corning, NY, USA) and incubated overnight at 37 °C in the presence of 5% CO2. The next day, the medium was removed and replaced with 20 μL of 1.2 µM thallium-sensitive dye Thallos-AM (ION biosciences, San Marcos, TX, USA), prepared as a DMSO stock solution mixed in a 1:1 ratio with 10% (w/v) pluronic acid F-127, and diluted in assay buffer (Hank’s balanced salt solution, 20 mM HEPES, pH 7.4). Following 1 h at room temperature, the dye solution was removed and replaced with 20 µL assay buffer. For screening of the FDA-Approved Drug Collection, 10 mM DMSO stocks of library compounds were transferred to daughter plates using an Echo acoustic plate reformatter (Labcyte, Sunnyvale, CA, USA) and diluted in assay buffer to a 2× final concentration. For concentration–response curve experiments, compounds were serially diluted 1:3 into 10-point concentration–response curves in DMSO, transferred to daughter plates using the Echo or Bravo Automated Liquid Handling Platform (Agilent Technologies, Santa Clara, CA, USA), and diluted in assay buffer to a 2× final concentration. Thallium flux was measured using the Hamamatsu FDSS/μCELL Kinetic Plate Imager (Bridgewater, NJ, USA). After the establishment of a fluorescence baseline (excitation, 480 ± 20 nm; emission, 540 ± 30 nm), 20 µL (2×) of test compound was added to the cells at 1 s and the response was measured. After 140 s, 10 µL (5×) of an EC20 concentration of agonist (PAM mode) or vehicle (AGO mode) in thallium stimulus buffer (125 mM NaHCO3, 1.8 mM CaSO4, 1 mM MgSO4, 5 mM glucose, 12 mM Tl2SO4, 10 mM HEPES, 0.5% BSA, pH 7.4) was added to the cells, and the response of the cells was measured for an additional 159 s (data were acquired for 300 s total at 0.5 Hz for 140 s and 1 Hz for 160 s). Raw kinetic data were analyzed in a multi-step process: (1) Fluorescence readings for each time point in a well were divided by the fluorescence reading at the initial time point to account for differences in cell number, non-uniform illumination, and dye-loading. (2) The slope value for each kinetic trace was calculated for the time window of 145–155 s, a window occurring directly after the second addition. (3) The average slope was calculated for wells containing vehicle and this value was subtracted from all wells. (4) The vehicle-subtracted slope was normalized to the relevant maximal agonist signal for each assay. […]

Row | Structure (SMILES) | rCB1 GIRK (−) 2-AG pEC50 ± SEM (absence of 2-AG) | rCB1 GIRK (+) 2-AG pEC50 ± SEM (presence of EC20 2-AG) | rCB1 GIRK (−) 2-AG % Max ± SEM (absence of 2-AG) [%] | rCB1 GIRK (+) 2-AG % Max ± SEM (presence of EC20 2-AG) [%] | pEC50 (rCB1 GIRK EC50 in absence of 2-AG, absence of 2-AG) | pEC50 (rCB1 GIRK EC50 in presence of 2-AG, presence of EC20 2-AG) | EC50 (presence of EC20 2-AG, read-out: rCB1 GIRK (+) 2-AG pEC50 ± SEM (converted)) [nM]
1 | O=C(NCC1CCOCC1)c1cnc(Nc2ccc(Cl)cc2Cl)nc1C(F)(F)F [GW-842,166X, 2-(2,4-dichloroanilino)-N-(oxan-4-ylmethyl)-4-(trifluoromethyl)pyrimidine-5-carboxamide] | Inactive | Inactive |  |  |  |  | 
2 | CC1(Cc2ccccc2)COc2cc(C(=O)N3CCCCC3)ccc21 (stereo not drawn) [MDA7, 1-[(3-benzyl-3-methyl-2,3-dihydro-1-benzofuran-6-yl)carbonyl]piperidine] |  |  | 50 ± 2 | 48 ± 2 | 6.32 | 6.40 | 
3 | COc1c(C)c2c(c(O)c1C/C=C(\C)CCC(=O)OCCN1CCOCC1)C(=O)OC2 [Mycophenolate mofetil] | < 5.0 | < 5.0 | −15 ± 3 | −5.5 ± 1.1 |  |  | > 10000
4 | COc1c(C)c2c(c(O)c1C/C=C(\C)CCC(=O)O)C(=O)OC2 [Mycophenolic acid] |  | Inactive |  |  |  |  | 
